For 16 compounds, Papp A→B results are on record in US20200131669A1, “CYCLIC PEPTIDE COMPOUND HAVING HIGH MEMBRANE PERMEABILITY, AND LIBRARY CONTAINING SAME” (Chugai Seiyaku Kabushiki Kaisha, priority 2017, published 2020).

What is called Papp A→B is the apparent permeability from the apical to the basolateral side of a cell layer. A low value points to slow passage.

Structures are written as SMILES. Starred links: 1 amine or outer side, 2 acyl side, 3 side chain; linkers in the order of their positions; H or OH if unused. Positions of bridges follow the written chain, without caps; N, C: chain ends. Non-standard residues stand in square brackets, D forms with d. Residues, ends and D or L forms follow the SMILES beside them. *: point of attachment. Glu(NHSO2Me) = CS(=O)(=O)NC(=O)CC[C@H](N)C(=O)O; NMePhe(3-Cl) = CN[C@@H](Cc1cccc(Cl)c1)C(=O)O; NMeW = CN[C@@H](Cc1c[nH]c2ccccc12)C(=O)O; NMeF = CN[C@@H](Cc1ccccc1)C(=O)O; NMeGABA = CN(CCCC(=O)[*:2])[*:1]; NMeI = CC[C@H](C)[C@H](NC)C(=O)O; NMeL = CN[C@@H](CC(C)C)C(=O)O; NMeV = CN[C@H](C(=O)O)C(C)C; NMeAbu = CC[C@H](NC)C(=O)O; NMeA = CN[C@@H](C)C(=O)O; Piperidide = C1CCN(*)CC1; NBuGly = CCCCNCC(=O)O; Sar = CNCC(=O)O; tBu = CC(C)(C)*

One data set is described as follows: Caco-2 membrane permeability, improved method as used in the following Examples (96-well, 20 to 24 h preincubation). It is filed as in vitro ADME. The following applies: human, Caco-2, Caco-2. As for the experimental part:
In the following Examples, membrane permeability was measured in accordance with the improved method established as described above. Specifically, Caco-2 cells were cultured on a 96-well Transwell for three weeks, after which DMEM+FaSSIF (1% DMSO)+compound were added to the apical side and DMEM was added to the basal side, and the cells were preincubated at 5% CO2, 37° C., and 80 rpm for 20 to 24 hours. Following the preincubation, measurement of membrane permeability was initiated by removing the preincubation solution on the apical and basal sides by suction, washing the membrane, and adding FaSSIF/HBSS buffer (1% DMSO) (pH 6.0) containing the compound to the apical side and HBSS buffer (4% BSA) (pH 7.4) to the basal side. Each well was shaken at 5% CO2, 37° C., and 80 rpm, and 180 minutes after the initiation, the sample on the basal side was collected and the permeation amount was measured by LC/MS. The membrane permeability coefficient (Papp) was calculated from the permeation amount. Herein, the terms “Caco-2 (cm/sec)” in the columns in the tables and “Papp (cm/sec)” are used in the same meaning.
On the technique in general: Caco-2 cells form a polarised layer with tight junctions and transporters.
For the compound `CCCCN1CC(=O)N(C)[C@@H](Cc2cccc(Cl)c2)C(=O)N[C@@H](CCC(=O)NS(C)(=O)=O)C(=O)N(C)[C@@H](CC(C)C)C(=O)N[C@@H]([C@@H](C)O)C(=O)N(CCCC)CC(=O)N(C)[C@@H](Cc2ccccc2)C(=O)N(C)[C@@H](CC(C)C)C(=O)N[C@@H](CC(C)C)C(=O)N(C)[C@@H](CC(C)C)C(=O)N[C@H](C(=O)N2CCCCC2)CC1=O` [pd66] ([NBuGly][NMePhe(3-Cl)][Glu(NHSO2Me)][NMeL]T[NBuGly][NMeF][NMeL]L[NMeL]D-Piperidide; lactam N-11), the Papp A→B at 180 min came out at 0.09 ×10⁻⁶ cm/s. With `CCCCN1CC(=O)N(C)[C@@H](CC(C)C)C(=O)N[C@@H](COC(C)(C)C)C(=O)N(C)[C@@H](Cc2ccccc2)C(=O)N(C)[C@@H](C(C)C)C(=O)N[C@H](C(=O)N2CCCCC2)CC(=O)N[C@H](C(C)C)C(=O)N(C)[C@@H](Cc2ccccc2)C(=O)N[C@@H](CCC(=O)NS(C)(=O)=O)C(=O)N(C)[C@@H](CC(C)C)C(=O)N[C@@H](CC(C)C)C1=O` [pd67] ([dV][NMeF][Glu(NHSO2Me)][NMeL]L[NBuGly][NMeL]S(tBu)[NMeF][NMeV]D-Piperidide; lactam N-11), the apparent permeability from apical to basolateral (Papp A→B) at 180 min turned out to be 0.06 ×10⁻⁶ cm/s. On the same count and under the same terms, under `CC(C)C[C@@H]1NC(=O)[C@H](CC(C)C)N(C)C(=O)CCCN(C)C(=O)C[C@@H](C(=O)N2CCCCC2)NC(=O)[C@H](CC(C)C)N(C)C(=O)[C@H](CC(C)C)N(C)C(=O)[C@H](CC(C)C)NC(=O)[C@H](CC(C)C)N(C)C(=O)[C@H](CCC(=O)NS(C)(=O)=O)NC(=O)[C@H](Cc2ccccc2)N(C)C(=O)[C@H](Cc2ccccc2)N(C)C1=O` [pd68] ([NMeGABA][NMeL]L[NMeF][NMeF][Glu(NHSO2Me)][NMeL]L[NMeL][NMeL]D-Piperidide; lactam N-11) stands 0.1 ×10⁻⁶ cm/s; under `CCCCN1CC(=O)N(C)[C@@H](C(C)C)C(=O)N[C@H](C(=O)N2CCCCC2)CC(=O)N(C)[C@@H](CC)C(=O)N[C@@H](CC(C)C)C(=O)N(C)[C@@H](CC(C)C)C(=O)N(C)[C@@H](Cc2ccccc2)C(=O)N[C@@H](CCC(=O)NS(C)(=O)=O)C(=O)N(C)[C@@H](Cc2ccccc2)C(=O)N(C)[C@@H](CC(C)C)C(=O)N[C@@H](CC(C)C)C1=O` [pd69] ([NMeAbu]L[NMeL][NMeF][Glu(NHSO2Me)][NMeF][NMeL]L[NBuGly][NMeV]D-Piperidide; lactam N-11), less than 0.14 ×10⁻⁶ cm/s. Consider `CCCCN1CC(=O)N(C)[C@@H](Cc2ccccc2)C(=O)N[C@@H](CCC(=O)NS(C)(=O)=O)C(=O)N(C)[C@@H](CC(C)C)C(=O)N[C@@H](CC(C)C)C(=O)N(C)CC(=O)N(C)[C@@H](Cc2ccccc2)C(=O)N(C)[C@@H](CC(C)C)C(=O)N[C@@H](CC(C)C)C(=O)N(C)[C@@H](CC(C)C)C(=O)N[C@H](C(=O)N2CCCCC2)CC1=O` [pd70] ([NBuGly][NMeF][Glu(NHSO2Me)][NMeL]L[Sar][NMeF][NMeL]L[NMeL]D-Piperidide; lactam N-11), for which the Papp A→B at 180 min was found to be 0.17 ×10⁻⁶ cm/s.

Still in this data set, the particulars now being: human, Caco-2, Caco-2 (cm/sec).
`CC(C)C[C@@H]1NC(=O)[C@H](CC(C)C)N(C)C(=O)[C@H](C)N(C)C(=O)[C@@H](C(C)C)NC(=O)C[C@@H](C(=O)N2CCCCC2)NC(=O)[C@H]([C@@H](C)O)NC(=O)[C@H](C)N(C)C(=O)CN(C)C(=O)[C@H](CC(C)C)N(C)C(=O)[C@H](Cc2c[nH]c3ccccc23)NC(=O)[C@H](Cc2ccccc2)N(C)C1=O` [pd100] ([dV][NMeA][NMeL]L[NMeF]W[NMeL][Sar][NMeA]TD-Piperidide; lactam N-11) returned an apical-to-basolateral permeability (Papp A→B) at 180 min of 0.11 ×10⁻⁶ cm/s. `CC[C@H](C)[C@H]1C(=O)N[C@@H](Cc2c[nH]c3ccccc23)C(=O)N(C)CC(=O)N(C)[C@@H](C)C(=O)N[C@H](C(=O)N2CCCCC2)CC(=O)N(C)[C@@H](C)C(=O)N[C@@H](CC(C)C)C(=O)N(C)[C@@H](CC(C)C)C(=O)N(C)[C@@H](CC(C)C)C(=O)N[C@@H](C)C(=O)N(C)[C@@H](CC(C)C)C(=O)N1C` [pd101] ([NMeA]L[NMeL][NMeL]A[NMeL][NMeI]W[Sar][NMeA]D-Piperidide; lactam N-11): the Papp A→B at 180 min worked out at 0.13 ×10⁻⁶ cm/s.

Compound `CC[C@H](C)[C@H]1C(=O)N[C@@H]([C@@H](C)O)C(=O)N(C)CC(=O)N(C)[C@@H](CC(C)C)C(=O)N[C@H](C(=O)N2CCCCC2)CC(=O)N(C)[C@@H](C)C(=O)N[C@@H](CC(C)C)C(=O)N(C)[C@@H](CC(C)C)C(=O)N(C)[C@@H](Cc2c[nH]c3ccccc23)C(=O)N[C@@H](C(C)C)C(=O)N(C)[C@@H](CC(C)C)C(=O)N1C` [pd102] ([NMeA]L[NMeL][NMeW]V[NMeL][NMeI]T[Sar][NMeL]D-Piperidide; lactam N-11) registered a Papp A→B at 180 min of 1.1 ×10⁻⁶ cm/s. On the same count and under the same terms, the figure for `CC[C@H](C)[C@@H]1NC(=O)[C@H](CC(C)C)N(C)C(=O)CN(C)C(=O)C[C@@H](C(=O)N2CCCCC2)NC(=O)[C@H](C)N(C)C(=O)[C@H](COC(C)(C)C)NC(=O)[C@H](CC(C)C)N(C)C(=O)[C@H](CC(C)C)N(C)C(=O)CN(C)C(=O)[C@H](Cc2c[nH]c3ccccc23)NC(=O)[C@H](CC(C)C)N(C)C1=O` [pd103] ([Sar][NMeL]I[NMeL]W[Sar][NMeL][NMeL]S(tBu)[NMeA]D-Piperidide; lactam N-11) is 0.093 ×10⁻⁶ cm/s; for `CC(C)C[C@H]1C(=O)N(C)[C@@H](Cc2c[nH]c3ccccc23)C(=O)N(C)[C@@H](Cc2ccccc2)C(=O)N[C@@H]([C@@H](C)O)C(=O)N(C)[C@@H](C)C(=O)N(C)[C@@H](CC(C)C)C(=O)N[C@H](C(=O)N2CCCCC2)CC(=O)N(C)[C@@H](C)C(=O)N(C)[C@@H](CC(C)C)C(=O)N(C)[C@@H](CC(C)C)C(=O)N[C@@H](C)C(=O)N1C` [pd104] ([NMeA][NMeL][NMeL]A[NMeL][NMeW][NMeF]T[NMeA][NMeL]D-Piperidide; lactam N-11) it is 0.025 ×10⁻⁶ cm/s. On the same count and under the same terms, under `CC(C)C[C@H]1C(=O)N(C)[C@@H](CC(C)C)C(=O)N(C)[C@@H](Cc2c[nH]c3ccccc23)C(=O)N[C@@H]([C@@H](C)O)C(=O)N(C)[C@@H](C)C(=O)N(C)[C@@H](CC(C)C)C(=O)N[C@H](C(=O)N2CCCCC2)CC(=O)N(C)[C@@H](C)C(=O)N(C)[C@@H](CC(C)C)C(=O)N(C)[C@@H](CC(C)C)C(=O)N[C@@H](C)C(=O)N1C` [pd105] ([NMeA][NMeL][NMeL]A[NMeL][NMeL][NMeW]T[NMeA][NMeL]D-Piperidide; lactam N-11) stands 0.28 ×10⁻⁶ cm/s; under `CC(C)C[C@@H]1NC(=O)[C@H](Cc2c[nH]c3ccccc23)N(C)C(=O)[C@@H](C(C)C)NC(=O)C[C@@H](C(=O)N2CCCCC2)NC(=O)[C@H](CC(C)C)N(C)C(=O)[C@H](CC(C)C)N(C)C(=O)[C@H](COC(C)(C)C)NC(=O)[C@H](CC(C)C)N(C)C(=O)CN(C)C(=O)[C@H]([C@@H](C)O)NC(=O)[C@H](CC(C)C)N(C)C1=O` [pd106] ([dV][NMeW]L[NMeL]T[Sar][NMeL]S(tBu)[NMeL][NMeL]D-Piperidide; lactam N-11), 0.36 ×10⁻⁶ cm/s; under `CC[C@H](C)[C@@H]1NC(=O)[C@H](CC(C)C)N(C)C(=O)CCCN(C)C(=O)C[C@@H](C(=O)N2CCCCC2)NC(=O)[C@H](CC(C)C)N(C)C(=O)[C@H](CC(C)C)N(C)C(=O)[C@H]([C@@H](C)O)NC(=O)[C@H](CC(C)C)N(C)C(=O)[C@H](COC(C)(C)C)NC(=O)[C@H](Cc2c[nH]c3ccccc23)N(C)C(=O)[C@H](Cc2ccccc2)N(C)C1=O` [pd107] ([NMeGABA][NMeL]I[NMeF][NMeW]S(tBu)[NMeL]T[NMeL][NMeL]D-Piperidide; lactam N-11), 0.17 ×10⁻⁶ cm/s. The same measure, in the same setting: the figure for `CC[C@H](C)[C@@H]1NC(=O)[C@H](CC(C)C)N(C)C(=O)[C@@H](C)NC(=O)C[C@@H](C(=O)N2CCCCC2)NC(=O)[C@H](C(C)C)N(C)C(=O)[C@H](CC(C)C)N(C)C(=O)[C@H](COC(C)(C)C)NC(=O)[C@H](CC(C)C)N(C)C(=O)CN(C)C(=O)[C@H](Cc2c[nH]c3ccccc23)NC(=O)[C@H](CC(C)C)N(C)C1=O` [pd108] ([dA][NMeL]I[NMeL]W[Sar][NMeL]S(tBu)[NMeL][NMeV]D-Piperidide; lactam N-11) is 0.87 ×10⁻⁶ cm/s; for `CC(C)C[C@H]1C(=O)N(C)[C@@H](Cc2c[nH]c3ccccc23)C(=O)N(C)[C@@H](Cc2ccccc2)C(=O)N[C@@H]([C@@H](C)O)C(=O)N(C)[C@@H](C)C(=O)N(C)[C@@H](CC(C)C)C(=O)N[C@H](C(=O)N2CCCCC2)CC(=O)N(C)[C@@H](C)C(=O)N(C)[C@@H](CC(C)C)C(=O)N(C)[C@@H](CC(C)C)C(=O)N[C@@H](C(C)C)C(=O)N1C` [pd109] ([NMeA][NMeL][NMeL]V[NMeL][NMeW][NMeF]T[NMeA][NMeL]D-Piperidide; lactam N-11) it is 0.0092 ×10⁻⁶ cm/s. The compound `CC[C@H](C)[C@@H]1NC(=O)[C@H](CC(C)C)N(C)C(=O)CCCN(C)C(=O)C[C@@H](C(=O)N2CCCCC2)NC(=O)[C@H](CC(C)C)N(C)C(=O)[C@H](C)N(C)C(=O)[C@H](Cc2c[nH]c3ccccc23)NC(=O)[C@H](CC(C)C)N(C)C(=O)[C@H](COC(C)(C)C)NC(=O)[C@H](CC(C)C)N(C)C(=O)[C@H](CC(C)C)N(C)C1=O` [pd110] ([NMeGABA][NMeL]I[NMeL][NMeL]S(tBu)[NMeL]W[NMeA][NMeL]D-Piperidide; lactam N-11) had a Papp A→B at 180 min of 0.29 ×10⁻⁶ cm/s. This Papp A→B at 180 min is about 32-fold higher than that of the compound before.
